Results on two molecules are retold here after patent publication US20260097047A1, “Small molecule inhibitors of the ribosome biogenesis factor NVL2” (Board of Regents, The University of Texas System, priority 2023, published 2026).

The test system of one test is HCT116 NVL^WT tumors. The experiment in a line: Efficacy study: HCT116 NVL wild type xenografts. Type of test: in vivo, mouse. The settings on record: 35 mg/kg IP twice a day for 21 days. On the procedure:
Having established the kinetics of MM927 mediated NVL inhibition in xenograft tumors, we administered 35 mg/kg MM927 IP twice a day for 21 days to mice harboring tumors derived from either HCT116 NVL wild type or NVL^R403W cells. […] Taken together, we concluded that the potent, and bioavailable analog MM927 reduces tumor growth in mouse xenografts by inhibiting NVL without toxicity.
Efficacy study: Five million parental HCT116 cells or HCT116 NVL^R403W in a volume of 0.1 mL were implanted in the right flank. Tumor volumes were measured every 2 to 4 days with calipers. Volume is calculated as [(L*W^2)*3.14]/6. When volumes reached ˜110 mm^3, treatment was started with 35 mg/kg MM927 or vehicle control (0.2 mL/mouse) twice a day for 21 days. Mice were euthanized at the end of the 21-day treatment period or when any tumor reached 2 cm in its largest diameter, in agreement with the approved animal protocol. At the end of treatment, blood and tumor tissue were collected for pharmacokinetic analysis, measurement of complete blood counts, and blood chemistry measurements as described. Serum alanine transaminase and blood urea nitrogen were analyzed using VITROS MicroSlide technology.

For another test, the system named is HCT116 cells. The experiment in a line: Genome-wide CRISPR/Cas9 knockout screen in HCT116 cells. The settings on record: 1 μM pulsed intermittently over 21 days. Type of test: cell-based, human. The text has this: To better understand how inhibition of NVL by MM017 leads to cell death, we performed a genome wide pooled CRISPR/Cas9 knockout screen in HCT116 cells using a library of guide RNAs targeting 19,114 genes. Cells were pulsed intermittently with vehicle or MM017 over 21 days, at which point MM017 treated cells had undergone 9.79 fewer population doublings. Massively parallel sequencing of PCR products amplified from genomic DNA was used to determine relative levels of sgRNA sequences to infer the relative impact of each gene on compound sensitivity. […]
HCT116 cells stably expressing Cas9 were generated by infecting cells with lentiCas9-Blast (Addgene #52962) and selection with 10 μg/mL blasticidin. […] Viable cells were counted at each passage and collected after 21 days. Genomic DNA was extracted using Blood & Cell Culture DNA Maxi kit (QIAGEN #13362), and concentrations were determined using Quant-iT PicoGreen dsDNA assay kits (Invitrogen #P7589). sgRNAs were PCR-amplified using 28 cycles from approximately 650 μg genomic DNA (10 μg DNA/100 μL reaction) using Ex Taq DNA Polymerase (TaKaRa #RR001B), 8 staggered P5 primers, and 1 unique P7 index primer per sample as described in the “Protocol PCR of sgRNAs from gDNA for Illumina sequencing” published by the Broad Institute (51). […] The mapping reads were counted for each sgRNA using SAMtools (v1.9) with the options “-F 2308-q 1”. […]

Test [1] deals with p53 KO and p21 KO HCT116 cells. The test can be described thus: Growth competition of p53 or p21 knockout versus control HCT116 cells. Type of test: cell-based, human. An excerpt:
To better understand how inhibition of NVL by MM017 leads to cell death, we performed a genome wide pooled CRISPR/Cas9 knockout screen in HCT116 cells using a library of guide RNAs targeting 19,114 genes. Cells were pulsed intermittently with vehicle or MM017 over 21 days, at which point MM017 treated cells had undergone 9.79 fewer population doublings. Massively parallel sequencing of PCR products amplified from genomic DNA was used to determine relative levels of sgRNA sequences to infer the relative impact of each gene on compound sensitivity. […] To confirm whether p53 and p21 are required for the anti-proliferative activity of MM017, we performed a growth competition experiment between cells expressing ZsGreen with either p53 or p21 knockout (KO) and control cells expressing mCherry. Without treatment, the ratio between green and red cells was unchanged over time.

For a further test, the system named is cleaved caspase-3. The test can be described thus: Cleaved caspase-3 (apoptosis), HCT116 control and p53 KO cells. The class given is cell-based, human. An excerpt: The upregulation of p53 and its effector p21 can arrest cell growth or induce cell death through apoptosis. […] Next, we addressed whether cell death was mediated by an apoptotic pathway by assaying for cleaved caspase-3, a bona fide marker of apoptosis.

SMILES strings stand for the structures.

On to `CC#CCN1C(=O)c2ccc(F)cc2Sc2cc(NC(=O)c3ccc4oc(=O)n(C)c4c3)ccc21` [MM927, N-(10-(But-2-yn-1-yl)-3-fluoro-11-oxo-10,11-dihydrodibenzo[b,f][1,4]thiazepin-7-yl)-3-methyl-2-oxo-2,3-dihydrobenzo[d]oxazole-5-carboxamide], for which, in the test on HCT116 NVL^WT tumors, the “endpoint tumor burden, NVL WT” value is recorded as “significantly reduced NVL WT tumor burden” and the “rate of growth of NVL^WT tumors” value is listed as “significantly reduced the rate of growth”.

As to `COCCN1C(=O)c2ccccc2Sc2cc(NC(=O)c3ccoc3)ccc21` [MM017], the “fewer population doublings than vehicle” value in the test on HCT116 cells came out at 9.79. Besides, in test [1], the “enrichment of p53 or p21 KO cells in growth competition” value is reported as “dose-dependent enrichment of either p53 or p21 KO cells”. Further, the “cleaved caspase-3” value in the test on cleaved caspase-3 is listed as “substantially reduced in p53 KO cells”.
